{"source": "patent US4987131A", "about": "“4H-triazolo[4,3-a][1,4]benzodiazepines” (Roussel Uclaf, priority 1985, dated 1991)", "key": {"[1]": {"tested_on": "arthritis induced by carrageenin in rats", "test": "Anti-inflammatory activity: arthritis induced by carrageenin", "format": "in vivo", "conditions": "Rattus norvegicus, po; male rats, orally, simultaneously with carrageenin in the tibio-tarsal articulation, paw volume; read-out: DA50, dose giving a decrease in the oedema of 50%", "method": "C. Anti-inflammatory activity was determined by the test for arthritis induced by carrageenin in rats and 0.5 ml of a sterile suspension at 1% of carrageenin was administered in the tibio-tarsal articulation of a back paw in male rats weighing from 130 to 150 g. Simultaneously, the product of Example 1 was orally administered in a suspension of carboxymethylcellulose at 0.25% and of Tween at 0.02%. The volume of the paw was measured before the administration, then 2 hours, 4 hours, 6 hours, 8 hours and 24 hours afterwards. The intensity of the inflammation was at its highest 4 to 6 hours after the injection of carrageenin and the difference in volume of the paws of the treated animals and the control animals was evidence of the anti-inflammatory action of the medicament. The DA50 was determined, which was the dose which enabled a decrease in the oedema of 50% to be obtained."}, "[2]": {"tested_on": "stretchings induced by acetic acid in mice", "test": "Analgesic activity: stretchings induced by acetic acid", "format": "in vivo", "conditions": "Mus musculus, po, 0.25 h, orally half an hour before i.p. acetic acid 100 mg/kg, observation 15 minutes, read-out: DA50, dose giving a decrease of 50% in the number of stretchings", "method": "B. Study of analgesic activity\nThe test used was stretchings induced by acetic acid described by R. Koster et al [Fed. Proc. 1959, 1B 412] according to which the intraperitoneal injection of acetic acid induces in mice repeated stretchings and torsional movements which can persist for more than 6 hours. Analgesics prevent or decrease this syndrome which can considered as the externalization of a diffuse abdominal pain. The acetic acid was administered at a dose of 100 mg/kg or 1 ml of a 1% aqueous solution per 100 g of body weight and the compound of Example 1 was orally administered half an hour before the injection of acetic acid, the mice having been without food for 7 hours. The stretchings were observed and counted for each mouse for a period of observation of 15 minutes and the results were expressed as active dose 50 which is the dose which enabled a decrease of 50% to be obtained in the number of stretchings in comparison with the control animals. The DA50 found was 4 mg/kg."}, "[3]": {"biological_target": "T1, cyclo-oxygenase contained in a microsomal preparation of seminal vesicles of a bull (Bos taurus, UniProt O62664)", "T1 construct": "cyclo-oxygenase contained in a microsomal preparation of seminal vesicles of a bull; from tissue; host or cells: bull seminal vesicles, microsomal preparation", "T1 sequence (O62664 25-600)": "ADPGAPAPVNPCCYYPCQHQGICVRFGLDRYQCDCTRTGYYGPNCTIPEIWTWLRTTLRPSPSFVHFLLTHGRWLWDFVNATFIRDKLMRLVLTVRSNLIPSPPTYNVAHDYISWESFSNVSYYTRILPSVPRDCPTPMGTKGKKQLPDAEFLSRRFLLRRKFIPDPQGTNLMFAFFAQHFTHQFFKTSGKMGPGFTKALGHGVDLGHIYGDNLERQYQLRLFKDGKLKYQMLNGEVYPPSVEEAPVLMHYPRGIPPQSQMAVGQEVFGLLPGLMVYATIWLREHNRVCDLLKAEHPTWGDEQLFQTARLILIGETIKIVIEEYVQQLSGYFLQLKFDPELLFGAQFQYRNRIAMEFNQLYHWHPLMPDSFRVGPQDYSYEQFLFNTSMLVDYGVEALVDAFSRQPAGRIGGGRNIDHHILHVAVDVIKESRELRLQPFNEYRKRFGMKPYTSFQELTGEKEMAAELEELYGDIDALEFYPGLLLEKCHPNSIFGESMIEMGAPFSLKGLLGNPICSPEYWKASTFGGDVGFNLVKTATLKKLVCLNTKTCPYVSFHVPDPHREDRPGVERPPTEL", "test": "Action on biosynthesis of prostaglandins in vitro", "format": "biochemical", "conditions": "arachidonic acid 15×10^-6 M, incubated 30 minutes at 37° C., radioimmuno test; read-out: CI50, inhibiting activity calculated on the sum of PGE2 and PGF2 alpha", "method": "A. Action on biosynthesis of prostaglandins in vitro.\nArachidonic acid is converted into prostaglandins (PGs) of series 2 by a cyclo-oxygenase contained in a microsomal preparation of seminal vesicles of a bull carried out according to the Tagekuchi et al method [Mechanism of prostaglandin biosynthesis. I characterization and essay of bovine prostaglandin synthetase. Biochemistry, 1971, 10, 2372]. The precursor, at […] of 15×10^-6 M, was incubated for 30 minutes at 37° C. in the presence of a fixed concentration in proteins of the preparation of seminal vesicles and of the product of Example 1. After blocking the reaction by immersion in boiling water for one minute, then centrifuging, the prostaglandins were evaluated by radioimmuno test inspired by that of Dray et al [Radioimmunoessay of prostaglandins F, E1 and E2 in human plasma. European J. Clin. Invest., 1975 5, 311]. This enabled the PGE2 and PGF2 alpha to be evaluated specifically and the inhibiting activity of the product (CI50) is calculated on the sum of these two prostaglandins. The CI50 found was 2×10^ -6 M."}}, "data": [{"smiles": "COc1ccc(-c2nnc3n2-c2ccccc2C(C)=NC3C)cc1", "note": "(stereo not drawn) [Example 1, 4,6-dimethyl-1-(4-methoxyphenyl)-4H-1,2,4-triazolo[4,3-a][1,4]benzodiazepine]", "values": [{"measurement": "ED50", "setting": "[1]", "value": 50, "unit": "mg/kg"}, {"measurement": "ED50", "setting": "[2]", "value": 4, "unit": "mg/kg"}, {"measurement": "IC50", "setting": "[3]", "value": 2000, "unit": "nM"}]}]}
